# ChEMBL document CHEMBL1144685, “Naphthamides as novel and potent vascular endothelial growth factor receptor tyrosine kinase inhibitors: design, synthesis, and evaluation” (J Med Chem, 2008)
# Experiments:
# [1] = AUC (0 to 24 hrs) in human HT29 cell xenografted CD1 nu/nu mouse at 10 mg/kg, po; assay type: ADME, organism-based, HT-29; parameters: time < 24 hr, dose 10 mg/kg, route oral; conditions: in vivo
# NIH3T3 = assay: Inhibition of CSF1-induced proliferation of BALB/c mouse 3T3 cells; assay type: functional, cell-based
# [2] = AUC (0 to 24 hrs) in human HT29 cell xenografted CD1 nu/nu mouse at 3 mg/kg, po; assay type: ADME, organism-based, HT-29; parameters: time < 24 hr, dose 3 mg/kg, route oral; conditions: in vivo
# Plasma [3] = assay: Plasma concentration in CD1 nu/nu mouse at 30 mg/kg, po; assay type: ADME, organism-based; parameters: dose 30 mg/kg, route oral; conditions: in vivo
# [4] = target: Fibroblast growth factor receptor 2 (Homo sapiens, UniProt P21802); assay: Inhibition of FGFR2
# Chain of Fibroblast growth factor receptor 2 (P21802 whole entry): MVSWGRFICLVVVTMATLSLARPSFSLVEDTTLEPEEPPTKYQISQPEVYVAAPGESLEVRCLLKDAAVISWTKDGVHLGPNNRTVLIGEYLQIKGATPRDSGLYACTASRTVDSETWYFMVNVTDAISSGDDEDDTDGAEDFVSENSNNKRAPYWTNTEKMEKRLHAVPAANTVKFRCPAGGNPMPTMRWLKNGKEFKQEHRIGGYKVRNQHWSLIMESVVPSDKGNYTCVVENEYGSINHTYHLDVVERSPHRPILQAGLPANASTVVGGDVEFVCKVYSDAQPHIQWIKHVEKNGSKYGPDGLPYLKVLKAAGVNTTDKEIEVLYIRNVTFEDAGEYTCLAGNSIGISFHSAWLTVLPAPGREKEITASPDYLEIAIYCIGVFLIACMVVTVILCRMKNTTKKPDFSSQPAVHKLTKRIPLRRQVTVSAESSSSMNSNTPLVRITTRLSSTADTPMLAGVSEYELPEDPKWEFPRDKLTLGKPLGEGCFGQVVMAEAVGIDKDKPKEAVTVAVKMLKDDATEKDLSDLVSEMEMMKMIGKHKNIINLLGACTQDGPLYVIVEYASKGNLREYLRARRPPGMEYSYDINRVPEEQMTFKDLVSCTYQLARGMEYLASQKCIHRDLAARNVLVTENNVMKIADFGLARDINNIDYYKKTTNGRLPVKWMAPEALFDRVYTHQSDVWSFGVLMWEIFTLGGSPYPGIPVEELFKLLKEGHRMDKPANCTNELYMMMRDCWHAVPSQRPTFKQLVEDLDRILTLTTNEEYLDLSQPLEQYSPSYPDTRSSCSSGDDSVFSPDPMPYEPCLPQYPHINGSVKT
# [5] = Inhibition of anti-CD3-induced proliferation of human T cells; assay type: functional, cell-based; conditions: T-cell
# Cytochrome P450 2D6 = Cytochrome P450 2D6 (Homo sapiens, UniProt P10635)
# Chain of Cytochrome P450 2D6 (P10635 whole entry): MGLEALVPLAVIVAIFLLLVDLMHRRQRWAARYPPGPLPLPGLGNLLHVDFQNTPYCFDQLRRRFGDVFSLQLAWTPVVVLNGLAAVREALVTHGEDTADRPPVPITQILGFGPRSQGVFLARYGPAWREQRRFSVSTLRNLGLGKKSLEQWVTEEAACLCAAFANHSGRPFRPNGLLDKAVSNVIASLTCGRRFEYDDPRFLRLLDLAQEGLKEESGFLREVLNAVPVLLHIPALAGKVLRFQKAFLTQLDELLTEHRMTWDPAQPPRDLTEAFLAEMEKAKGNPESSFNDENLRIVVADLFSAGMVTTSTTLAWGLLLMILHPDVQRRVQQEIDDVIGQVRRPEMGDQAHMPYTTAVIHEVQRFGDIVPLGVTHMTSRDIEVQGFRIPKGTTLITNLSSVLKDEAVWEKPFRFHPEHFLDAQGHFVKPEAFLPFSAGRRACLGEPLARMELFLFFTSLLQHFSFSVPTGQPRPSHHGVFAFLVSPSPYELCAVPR
# [6] = Intrinsic clearance in rat liver microsomes; assay type: ADME, Microsome
# [7] = target: Serine/threonine-protein kinase B-raf (Homo sapiens, UniProt P15056, V600E); assay: Inhibition of b-Raf V600E
# [8] = Inhibition of histone H3 phosphorylation in human HeLa cells; assay type: cell-based
# [9] = Protein binding in dog plasma; assay type: ADME, cell-free, Canis lupus familiaris; conditions: read-out: PPB (converted)
# Plasma [10] = assay: Plasma concentration in BALB/c mouse at 30 mg/kg, po; assay type: ADME, organism-based; parameters: dose 30 mg/kg, route oral; conditions: in vivo
# [11] = Cmax in human HT29 cell xenografted CD1 nu/nu mouse at 30 mg/kg, po; assay type: ADME, organism-based, HT-29; parameters: dose 30 mg/kg, route oral; conditions: in vivo
# Cytochrome P450 3A4 = Cytochrome P450 3A4 (Homo sapiens, UniProt P08684)
# Chain of Cytochrome P450 3A4 (P08684 whole entry): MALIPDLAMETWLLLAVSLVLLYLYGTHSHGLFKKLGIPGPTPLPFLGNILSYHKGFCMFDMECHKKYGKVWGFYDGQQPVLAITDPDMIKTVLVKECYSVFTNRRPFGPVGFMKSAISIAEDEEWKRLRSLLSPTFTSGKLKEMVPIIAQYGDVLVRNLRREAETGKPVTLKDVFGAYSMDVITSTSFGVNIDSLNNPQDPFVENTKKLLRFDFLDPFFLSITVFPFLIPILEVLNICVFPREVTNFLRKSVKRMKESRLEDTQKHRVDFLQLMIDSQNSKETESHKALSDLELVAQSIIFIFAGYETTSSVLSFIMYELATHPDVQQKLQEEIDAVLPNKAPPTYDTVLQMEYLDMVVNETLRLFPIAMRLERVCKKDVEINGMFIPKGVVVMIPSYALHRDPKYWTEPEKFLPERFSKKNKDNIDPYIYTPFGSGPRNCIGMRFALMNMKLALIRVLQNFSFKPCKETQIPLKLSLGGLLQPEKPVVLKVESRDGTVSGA
# [12] = target: Macrophage colony-stimulating factor 1 receptor (Homo sapiens, UniProt P07333); assay: Inhibition of c-FMS
# Chain of Macrophage colony-stimulating factor 1 receptor (P07333 whole entry): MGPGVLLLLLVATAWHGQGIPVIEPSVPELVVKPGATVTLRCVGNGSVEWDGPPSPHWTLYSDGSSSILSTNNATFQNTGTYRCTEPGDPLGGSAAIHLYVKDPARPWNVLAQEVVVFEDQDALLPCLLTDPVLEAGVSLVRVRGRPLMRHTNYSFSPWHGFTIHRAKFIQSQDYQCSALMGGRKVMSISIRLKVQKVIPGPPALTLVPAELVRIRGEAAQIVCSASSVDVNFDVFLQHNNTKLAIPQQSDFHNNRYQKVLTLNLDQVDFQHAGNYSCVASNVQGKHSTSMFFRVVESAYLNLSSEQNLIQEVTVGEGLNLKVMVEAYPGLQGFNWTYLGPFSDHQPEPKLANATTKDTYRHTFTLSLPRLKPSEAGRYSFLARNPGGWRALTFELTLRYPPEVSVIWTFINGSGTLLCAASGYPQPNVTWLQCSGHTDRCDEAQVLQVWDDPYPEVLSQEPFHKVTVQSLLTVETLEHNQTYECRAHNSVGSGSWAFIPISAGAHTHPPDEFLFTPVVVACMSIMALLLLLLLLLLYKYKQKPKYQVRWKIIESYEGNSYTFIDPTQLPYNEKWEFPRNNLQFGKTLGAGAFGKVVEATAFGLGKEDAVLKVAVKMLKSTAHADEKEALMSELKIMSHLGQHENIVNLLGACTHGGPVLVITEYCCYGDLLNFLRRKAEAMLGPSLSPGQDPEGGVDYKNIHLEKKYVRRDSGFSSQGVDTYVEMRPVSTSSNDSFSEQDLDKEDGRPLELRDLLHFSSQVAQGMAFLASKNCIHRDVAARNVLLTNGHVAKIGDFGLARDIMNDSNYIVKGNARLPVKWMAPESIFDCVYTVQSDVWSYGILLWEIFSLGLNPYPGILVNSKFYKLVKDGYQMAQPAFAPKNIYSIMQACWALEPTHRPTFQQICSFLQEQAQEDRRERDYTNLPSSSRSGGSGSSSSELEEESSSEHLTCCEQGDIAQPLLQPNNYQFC
# Mus musculus = assay: Antitumor activity against human HT29 cell xenografted CD1 nu/nu mouse assessed as inhibition of tumor growth at 3 mg/kg, po; assay type: functional; conditions: CD1, HT-29
# [13] = target: Vascular endothelial growth factor receptor 3 (Homo sapiens, UniProt P35916)
# Plasma [14] = assay: Plasma concentration in BALB/c mouse at 10 mg/kg, po; assay type: ADME, organism-based; parameters: dose 10 mg/kg, route oral; conditions: in vivo
# Liver microsomes = assay: Metabolic stability assessed as covalent binding in human liver microsomes; assay type: ADME, Microsome
# [15] = AUC (0 to 24 hrs) in Sprague-Dawley rat at 5 mg/kg, po; assay type: ADME, organism-based; parameters: time < 24 hr, dose 5 mg/kg, route oral; conditions: plasma
# [16] = Protein binding in mouse plasma; assay type: ADME, cell-free; conditions: read-out: PPB (converted)
# Aurora kinase B = Aurora kinase B (Homo sapiens, UniProt Q96GD4); assay: Inhibition of Aurora B
# Chain of Aurora kinase B (Q96GD4 whole entry): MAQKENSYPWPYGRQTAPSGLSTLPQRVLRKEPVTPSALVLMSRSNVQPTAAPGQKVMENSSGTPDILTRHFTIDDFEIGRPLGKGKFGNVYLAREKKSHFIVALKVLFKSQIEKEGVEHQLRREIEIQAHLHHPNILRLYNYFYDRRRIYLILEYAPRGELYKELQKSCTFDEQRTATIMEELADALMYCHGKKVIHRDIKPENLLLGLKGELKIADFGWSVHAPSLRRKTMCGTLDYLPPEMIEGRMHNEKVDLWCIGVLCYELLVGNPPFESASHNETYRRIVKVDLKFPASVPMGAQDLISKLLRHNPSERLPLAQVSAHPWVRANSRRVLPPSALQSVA
# [17] = AUC in VEGF soaked disk implanted Sprague-Dawley rat; assay type: ADME, organism-based; conditions: plasma
# [18] = Cmax in human HT29 cell xenografted CD1 nu/nu mouse at 3 mg/kg, po; assay type: ADME, organism-based, HT-29; parameters: dose 3 mg/kg, route oral; conditions: in vivo
# [19] = target: Vascular endothelial growth factor receptor 1 (Homo sapiens, UniProt P17948)
# Chain of Vascular endothelial growth factor receptor 1 (P17948 whole entry): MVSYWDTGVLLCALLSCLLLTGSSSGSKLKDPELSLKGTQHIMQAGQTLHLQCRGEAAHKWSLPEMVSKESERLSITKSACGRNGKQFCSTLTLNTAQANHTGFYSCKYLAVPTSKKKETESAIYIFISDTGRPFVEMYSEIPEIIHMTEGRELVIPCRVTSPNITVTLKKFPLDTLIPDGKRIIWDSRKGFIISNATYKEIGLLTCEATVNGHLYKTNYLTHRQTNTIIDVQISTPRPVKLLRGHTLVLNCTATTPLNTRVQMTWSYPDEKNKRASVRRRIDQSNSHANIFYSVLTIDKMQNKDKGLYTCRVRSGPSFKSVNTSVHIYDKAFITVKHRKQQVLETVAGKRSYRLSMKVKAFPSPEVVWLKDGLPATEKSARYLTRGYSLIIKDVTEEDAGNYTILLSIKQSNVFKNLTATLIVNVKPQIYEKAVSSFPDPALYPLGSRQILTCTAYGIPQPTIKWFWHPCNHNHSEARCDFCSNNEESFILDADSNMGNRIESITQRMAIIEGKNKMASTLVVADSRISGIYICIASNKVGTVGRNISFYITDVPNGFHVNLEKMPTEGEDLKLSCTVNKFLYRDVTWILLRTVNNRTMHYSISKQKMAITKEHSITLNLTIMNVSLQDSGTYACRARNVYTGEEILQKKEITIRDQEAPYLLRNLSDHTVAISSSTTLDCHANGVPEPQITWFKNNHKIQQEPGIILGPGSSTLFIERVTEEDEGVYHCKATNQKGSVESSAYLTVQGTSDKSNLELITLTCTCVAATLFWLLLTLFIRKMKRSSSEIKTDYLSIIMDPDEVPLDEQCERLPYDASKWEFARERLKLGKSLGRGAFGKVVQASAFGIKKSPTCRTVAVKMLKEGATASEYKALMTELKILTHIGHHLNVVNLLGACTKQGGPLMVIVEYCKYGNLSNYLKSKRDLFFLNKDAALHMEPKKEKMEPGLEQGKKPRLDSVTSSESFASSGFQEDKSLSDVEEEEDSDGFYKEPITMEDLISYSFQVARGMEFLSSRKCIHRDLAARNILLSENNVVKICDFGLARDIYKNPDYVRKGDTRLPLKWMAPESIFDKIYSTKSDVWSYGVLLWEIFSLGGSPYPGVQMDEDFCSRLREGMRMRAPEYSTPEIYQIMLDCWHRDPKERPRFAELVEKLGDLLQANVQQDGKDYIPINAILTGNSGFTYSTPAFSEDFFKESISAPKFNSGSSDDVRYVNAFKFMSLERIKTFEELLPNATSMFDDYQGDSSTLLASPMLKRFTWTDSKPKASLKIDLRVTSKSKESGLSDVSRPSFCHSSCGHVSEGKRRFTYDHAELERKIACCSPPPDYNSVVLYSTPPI
# HUVEC [20] = assay: Inhibition of FGF-induced proliferation of HUVEC cells; assay type: functional, cell-based; conditions: Homo sapiens
# [21] = target: Tyrosine-protein kinase Lck (Homo sapiens, UniProt P06239)
# Chain of Tyrosine-protein kinase Lck (P06239 whole entry): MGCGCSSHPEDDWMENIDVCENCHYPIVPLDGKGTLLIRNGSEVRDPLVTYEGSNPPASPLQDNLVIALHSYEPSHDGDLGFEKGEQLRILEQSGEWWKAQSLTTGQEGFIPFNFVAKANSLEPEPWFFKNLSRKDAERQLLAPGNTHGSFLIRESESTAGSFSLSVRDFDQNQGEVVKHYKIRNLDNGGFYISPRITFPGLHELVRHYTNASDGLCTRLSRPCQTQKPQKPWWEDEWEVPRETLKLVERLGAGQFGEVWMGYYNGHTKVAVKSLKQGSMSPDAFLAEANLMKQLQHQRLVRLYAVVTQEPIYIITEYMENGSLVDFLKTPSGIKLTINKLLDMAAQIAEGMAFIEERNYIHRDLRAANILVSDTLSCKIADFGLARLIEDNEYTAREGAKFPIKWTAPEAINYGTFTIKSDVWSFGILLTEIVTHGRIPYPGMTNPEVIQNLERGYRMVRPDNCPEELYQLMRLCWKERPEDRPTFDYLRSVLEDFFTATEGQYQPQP
# [22] = Oral bioavailability in Sprague-Dawley rat at 5 mg/kg; assay type: ADME, organism-based; conditions: in vivo
# [23] = AUC (0 to 24 hrs) in human HT29 cell xenografted CD1 nu/nu mouse at 30 mg/kg, po; assay type: ADME, organism-based, HT-29; parameters: time < 24 hr, dose 30 mg/kg, route oral; conditions: in vivo
# [24] = Cmax in Sprague-Dawley rat at 5 mg/kg, po; assay type: ADME, organism-based; parameters: dose 5 mg/kg, route oral; conditions: in vivo
# Plasma [25] = assay: Plasma concentration in CD1 nu/nu mouse at 100 mg/kg, po; assay type: ADME, organism-based; parameters: dose 100 mg/kg, route oral; conditions: in vivo
# [26] = Clearance in Sprague-Dawley rat at 2 mg/kg, iv; assay type: ADME, organism-based; parameters: dose 2 mg/kg, route intravenous; conditions: in vivo
# [27] = Cmax in VEGF soaked disk implanted Sprague-Dawley rat; assay type: ADME, organism-based; conditions: in vivo
# [28] = Half life in Sprague-Dawley rat at 2 mg/kg, iv; assay type: ADME, organism-based; parameters: dose 2 mg/kg, route intravenous; conditions: in vivo
# HUVEC [29] = assay: cells; conditions: Homo sapiens
# Description: Inhibition of bFGF-induced proliferation of HUVEC cells
# [30] = Mean retention time in Sprague-Dawley rat at 2 mg/kg, iv; assay type: ADME, organism-based; parameters: dose 2 mg/kg, route intravenous; conditions: in vivo
# [31] = Intrinsic clearance in human liver microsomes; assay type: ADME, Microsome
# Plasma [32] = assay: Plasma concentration in BALB/c mouse at 3 mg/kg, po; assay type: ADME, organism-based; parameters: dose 3 mg/kg, route oral; conditions: in vivo
# [33] = Inhibition of Erk phosphorylation in human A375 cells; assay type: cell-based; conditions: A-375
# [34] = Protein binding in rat plasma; assay type: ADME, cell-free; conditions: read-out: PPB (converted)
# Rattus norvegicus = assay: Inhibition of VEGF-induced angiogenesis in VEGF soaked disk implanted Sprague-Dawley rat cornea assessed as number of blood vessels intersecting the midpoint between the disk and limbus after 7 days; assay type: functional; conditions: 168 h
# [35] = Cmax in human HT29 cell xenografted CD1 nu/nu mouse at 10 mg/kg, po; assay type: ADME, organism-based, HT-29; parameters: dose 10 mg/kg, route oral; conditions: in vivo
# [36] = Volume of distribution at steady state in Sprague-Dawley rat at 2 mg/kg, iv; assay type: ADME, organism-based; parameters: dose 2 mg/kg, route intravenous; conditions: in vivo, read-out: Vdss
# NHDF = assay: Inhibition of PDGF-induced proliferation of NHDF cells; assay type: functional, cell-based; conditions: Homo sapiens
# [37] = Half life in Sprague-Dawley rat at 0.25 mg/kg, iv; assay type: ADME, organism-based; parameters: dose 0.25 mg/kg, route intravenous; conditions: in vivo
# [38] = Volume of distribution at steady state in Sprague-Dawley rat at 0.25 mg/kg, iv; assay type: ADME, organism-based; parameters: dose 0.25 mg/kg, route intravenous; conditions: in vivo, read-out: Vdss
# [39] = Clearance in Sprague-Dawley rat at 0.25 mg/kg, iv; assay type: ADME, organism-based; parameters: dose 0.25 mg/kg, route intravenous; conditions: in vivo
# [40] = target: Vascular endothelial growth factor receptor 2 (Homo sapiens, UniProt P35968)
# Description: Inhibition of KDR by HTRF assay
# [41] = Cmax in Sprague-Dawley rat at 2 mg/kg; assay type: ADME, organism-based; parameters: dose 2 mg/kg; conditions: in vivo
# HUVEC [42] = assay: cells; conditions: Homo sapiens; remark: listed apart in the source
# Description: Inhibition of VEGF-induced proliferation of HUVEC cells
# [43] = AUC (0 to 24 hrs) in Sprague-Dawley rat at 2 mg/kg; assay type: ADME, organism-based; parameters: time < 24 hr, dose 2 mg/kg; conditions: plasma
# [44] = Mean retention time in Sprague-Dawley rat at 0.25 mg/kg, iv; assay type: ADME, organism-based; parameters: dose 0.25 mg/kg, route intravenous; conditions: in vivo
# [45] = Oral bioavailability in Sprague-Dawley rat at 2 mg/kg; assay type: ADME, organism-based; conditions: in vivo
structure (smiles),measurement,setting,value
COc1cc2nccc(Oc3ccc4c(C(=O)Nc5ccc(Cl)cc5)cccc4c3)c2cc1OC,AUC(0-t) at 24 h,[1],24.1 µM·h
same,IC50,NIH3T3,25 nM
same,AUC(0-t) at 24 h,[2],6.2 µM·h
same,concentration,Plasma [3],4000 nM
same,IC50,[4],> 20000 nM
same,IC50,[5],> 20000 nM
same,IC50,Cytochrome P450 2D6,> 50000 nM
same,microsomal CLint,[6],50 µL/min/mg
same,IC50,[7],40 nM
same,IC50,[8],1100 nM
same,fraction unbound,[9],0.026
same,concentration,Plasma [10],1500 nM
same,Cmax,[11],3900 nM
same,IC50,Cytochrome P450 3A4,> 50000 nM
same,IC50,[12],20 nM
same,inhibition in vivo at 3 mg/kg,Mus musculus,74%
same,IC50,[13],2 nM
same,concentration,Plasma [14],490 nM
same,Stability,Liver microsomes,< 100 pM/mg/h
same,AUC(0-t) at 24 h,[15],5250 ng·h/mL
same,fraction unbound,[16],0.014
same,IC50,Aurora kinase B,> 1000 nM
same,AUC,[17],1.3 µM·h
same,Cmax,[18],500 nM
same,IC50,[19],0.5 nM
same,IC50,HUVEC [20],> 1140 nM
same,IC50,[21],38 nM
same,bioavailability,[22],21%
same,AUC(0-t) at 24 h,[23],48.4 µM·h
same,Cmax,[24],420 ng/mL
same,concentration,Plasma [25],10300 nM
same,clearance,[26],3.33 mL/min/kg
same,Cmax,[27],200 nM
same,half-life,[28],24 h
same,IC50,HUVEC [29],> 1100 nM
same,MRT,[30],31 h
same,microsomal CLint,[31],30 µL/min/mg
same,concentration,Plasma [32],160 nM
same,IC50,[33],> 1000 nM
same,fraction unbound,[34],0.02
same,ED50,Rattus norvegicus,0.1 mg/kg
same,Cmax,[35],2200 nM
same,Vd,[36],7.3 L/kg
same,IC50,NHDF,25 nM
COc1cc2nccc(Oc3ccc4c(C(=O)Nc5ccc(Cl)cc5)cccc4c3F)c2cc1OC,IC50,Cytochrome P450 2D6,> 50000 nM
same,half-life,[37],17 h
same,microsomal CLint,[6],30 µL/min/mg
same,Vd,[38],2.4 L/kg
same,IC50,Cytochrome P450 3A4,> 50000 nM
same,clearance,[39],1.67 mL/min/kg
same,IC50,[40],0.3 nM
same,Cmax,[41],610 ng/mL
same,IC50,HUVEC [42],2 nM
same,IC50,HUVEC [29],280 nM
same,AUC(0-t) at 24 h,[43],6010 ng·h/mL
same,MRT,[44],22 h
same,microsomal CLint,[31],30 µL/min/mg
same,bioavailability,[45],50%
